The test system of one test is SN12C. As to the kind of experiment: Proliferation assay: SN12C (renal cell carcinoma). The format is functional, cell-based. The note with it: Homo sapiens.
For test [1], the target named is Cytoplasmic tyrosine-protein kinase BMX (Homo sapiens) (UniProt P51813). The note with it: Compound concentration 1000.0 nM.
Test [2] concerns the target Calcium/calmodulin-dependent protein kinase type II subunit gamma (Homo sapiens) (UniProt Q13555). The settings on record: Compound concentration 1000.0 nM.
The target of test [3] is Cyclin-dependent kinase 8 (Homo sapiens) (UniProt P49336). The note with it: Compound concentration 1000.0 nM.
Test [4] has as its target Cyclin-dependent kinase 9 (Homo sapiens) (UniProt P50750). The note with it: Compound concentration 1000.0 nM.
The target of test [5] is Macrophage colony-stimulating factor 1 receptor (Homo sapiens) (UniProt P07333). The note with it: Compound concentration 1000.0 nM.
For test [6], the target named is Casein kinase I isoform epsilon (Homo sapiens) (UniProt P49674). The note with it: Compound concentration 1000.0 nM.
Test [7] concerns the target Epithelial discoidin domain-containing receptor 1 (Homo sapiens) (UniProt Q08345). The note with it: Compound concentration 1000.0 nM.
The subject of test [8] is Epidermal growth factor receptor (Homo sapiens), P00533 [G719S]. The note with it: Compound concentration 1000.0 nM.
Test [9] addresses Ephrin type-A receptor 2 (Homo sapiens) (UniProt P29317). The note with it: Compound concentration 1000.0 nM.
Test [10] addresses Mitogen-activated protein kinase 1 (Homo sapiens) (UniProt P28482). The note with it: Compound concentration 1000.0 nM.
For test [11], the target named is Tyrosine-protein kinase FRK (Homo sapiens) (UniProt P42685). The settings on record: Compound concentration 1000.0 nM.
The target in test [12] is Interleukin-1 receptor-associated kinase 1 (Homo sapiens) (UniProt P51617). The settings on record: Compound concentration 1000.0 nM.
The test system of test [13] is Mast/stem cell growth factor receptor Kit (Homo sapiens), P10721 [D816H]. The settings on record: Compound concentration 1000.0 nM.
Test [14] addresses T1, MAP kinase-activated protein kinase 5 (Homo sapiens) (UniProt Q8IW41).
T1 sequence (whole entry): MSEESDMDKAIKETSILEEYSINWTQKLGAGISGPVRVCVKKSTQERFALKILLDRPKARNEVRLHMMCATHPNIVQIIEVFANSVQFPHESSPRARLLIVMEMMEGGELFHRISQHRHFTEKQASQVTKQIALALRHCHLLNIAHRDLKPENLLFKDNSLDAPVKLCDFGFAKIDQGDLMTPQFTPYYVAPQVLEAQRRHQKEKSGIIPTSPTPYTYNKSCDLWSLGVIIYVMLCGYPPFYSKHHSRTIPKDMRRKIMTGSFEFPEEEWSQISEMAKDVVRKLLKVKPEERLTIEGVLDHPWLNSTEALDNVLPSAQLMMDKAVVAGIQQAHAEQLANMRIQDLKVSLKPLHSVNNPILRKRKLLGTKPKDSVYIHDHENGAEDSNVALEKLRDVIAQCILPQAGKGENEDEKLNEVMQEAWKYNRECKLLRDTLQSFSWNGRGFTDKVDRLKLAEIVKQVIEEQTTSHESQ
The note with it: Compound concentration 1000.0 nM.

For test [15], the target named is Serine/threonine-protein kinase MRCK alpha (Homo sapiens) (UniProt Q5VT25). The settings on record: Compound concentration 1000.0 nM.
Test [16] has as its target Phosphatidylinositol 4,5-bisphosphate 3-kinase catalytic subunit beta isoform (Homo sapiens) (UniProt P42338). The settings on record: Compound concentration 1000.0 nM.
Test [17] deals with T2, cAMP-dependent protein kinase catalytic subunit PRKX (Homo sapiens) (UniProt P51817).
T2 sequence (whole entry): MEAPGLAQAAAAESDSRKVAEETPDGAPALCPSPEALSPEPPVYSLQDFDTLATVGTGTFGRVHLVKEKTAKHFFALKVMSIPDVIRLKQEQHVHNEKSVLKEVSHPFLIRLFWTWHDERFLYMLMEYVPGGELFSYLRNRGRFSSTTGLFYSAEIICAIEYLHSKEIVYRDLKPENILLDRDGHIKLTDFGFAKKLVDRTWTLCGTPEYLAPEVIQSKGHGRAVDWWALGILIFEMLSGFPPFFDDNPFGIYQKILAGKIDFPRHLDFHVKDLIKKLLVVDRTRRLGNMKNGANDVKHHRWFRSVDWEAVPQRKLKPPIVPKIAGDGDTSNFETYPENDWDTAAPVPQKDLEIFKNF
The note with it: Compound concentration 1000.0 nM.

For test [18], the target named is Serine/threonine-protein kinase SIK3 (Homo sapiens) (UniProt Q9Y2K2). The note with it: Compound concentration 1000.0 nM.
Test [19] concerns the target Serine/threonine-protein kinase RIO3 (Homo sapiens) (UniProt O14730). The note with it: Compound concentration 1000.0 nM.
The target in test [20] is Ribosomal protein S6 kinase alpha-3 (Homo sapiens) (UniProt P51812). The settings on record: Compound concentration 1000.0 nM.
Test [21] addresses Ribosomal protein S6 kinase alpha-6 (Homo sapiens) (UniProt Q9UK32). The settings on record: Compound concentration 1000.0 nM.
For test [22], the target named is Serine/threonine-protein kinase TNNI3K (Homo sapiens) (UniProt Q59H18). The settings on record: Compound concentration 1000.0 nM.

By IC50 is commonly meant the point on the concentration scale where inhibition reaches its midpoint. Low readings indicate greater potency, high ones weaker potency.

Each structure is given as a SMILES string.

Casein kinase I isoform epsilon (Homo sapiens), sequence (P49674 whole entry, looked up, the tested form may be a part, canonical isoform): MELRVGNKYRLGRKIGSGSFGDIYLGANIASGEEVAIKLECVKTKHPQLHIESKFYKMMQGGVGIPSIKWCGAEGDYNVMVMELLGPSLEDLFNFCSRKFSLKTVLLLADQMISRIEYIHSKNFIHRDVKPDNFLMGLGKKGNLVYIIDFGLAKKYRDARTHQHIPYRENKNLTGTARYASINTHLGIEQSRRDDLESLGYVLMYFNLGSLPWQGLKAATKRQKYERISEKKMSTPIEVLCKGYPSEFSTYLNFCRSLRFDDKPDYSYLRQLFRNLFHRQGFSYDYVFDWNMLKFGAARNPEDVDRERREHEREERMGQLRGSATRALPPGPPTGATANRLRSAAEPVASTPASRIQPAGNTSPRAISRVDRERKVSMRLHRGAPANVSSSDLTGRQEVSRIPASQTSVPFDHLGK
Cytoplasmic tyrosine-protein kinase BMX (Homo sapiens), sequence (P51813 whole entry): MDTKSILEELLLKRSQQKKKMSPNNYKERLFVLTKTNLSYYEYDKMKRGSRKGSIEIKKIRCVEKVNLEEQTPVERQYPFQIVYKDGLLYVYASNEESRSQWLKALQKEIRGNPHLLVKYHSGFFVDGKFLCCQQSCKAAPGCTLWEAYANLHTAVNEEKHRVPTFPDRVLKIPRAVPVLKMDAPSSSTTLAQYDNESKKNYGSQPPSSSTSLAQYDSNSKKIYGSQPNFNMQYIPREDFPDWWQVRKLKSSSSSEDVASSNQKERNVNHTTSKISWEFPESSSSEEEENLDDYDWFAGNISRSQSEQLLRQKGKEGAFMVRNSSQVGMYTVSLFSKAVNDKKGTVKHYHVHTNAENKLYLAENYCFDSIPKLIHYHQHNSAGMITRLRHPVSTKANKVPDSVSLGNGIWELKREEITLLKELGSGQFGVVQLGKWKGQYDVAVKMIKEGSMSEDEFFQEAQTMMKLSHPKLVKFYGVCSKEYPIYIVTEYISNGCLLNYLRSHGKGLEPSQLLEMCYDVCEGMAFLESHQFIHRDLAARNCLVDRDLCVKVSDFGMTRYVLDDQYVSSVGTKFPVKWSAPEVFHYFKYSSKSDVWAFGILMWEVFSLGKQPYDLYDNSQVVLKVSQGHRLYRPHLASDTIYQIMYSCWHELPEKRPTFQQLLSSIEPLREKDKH
Mast/stem cell growth factor receptor Kit (Homo sapiens), P10721 [D816H], sequence (P10721 whole entry D816H): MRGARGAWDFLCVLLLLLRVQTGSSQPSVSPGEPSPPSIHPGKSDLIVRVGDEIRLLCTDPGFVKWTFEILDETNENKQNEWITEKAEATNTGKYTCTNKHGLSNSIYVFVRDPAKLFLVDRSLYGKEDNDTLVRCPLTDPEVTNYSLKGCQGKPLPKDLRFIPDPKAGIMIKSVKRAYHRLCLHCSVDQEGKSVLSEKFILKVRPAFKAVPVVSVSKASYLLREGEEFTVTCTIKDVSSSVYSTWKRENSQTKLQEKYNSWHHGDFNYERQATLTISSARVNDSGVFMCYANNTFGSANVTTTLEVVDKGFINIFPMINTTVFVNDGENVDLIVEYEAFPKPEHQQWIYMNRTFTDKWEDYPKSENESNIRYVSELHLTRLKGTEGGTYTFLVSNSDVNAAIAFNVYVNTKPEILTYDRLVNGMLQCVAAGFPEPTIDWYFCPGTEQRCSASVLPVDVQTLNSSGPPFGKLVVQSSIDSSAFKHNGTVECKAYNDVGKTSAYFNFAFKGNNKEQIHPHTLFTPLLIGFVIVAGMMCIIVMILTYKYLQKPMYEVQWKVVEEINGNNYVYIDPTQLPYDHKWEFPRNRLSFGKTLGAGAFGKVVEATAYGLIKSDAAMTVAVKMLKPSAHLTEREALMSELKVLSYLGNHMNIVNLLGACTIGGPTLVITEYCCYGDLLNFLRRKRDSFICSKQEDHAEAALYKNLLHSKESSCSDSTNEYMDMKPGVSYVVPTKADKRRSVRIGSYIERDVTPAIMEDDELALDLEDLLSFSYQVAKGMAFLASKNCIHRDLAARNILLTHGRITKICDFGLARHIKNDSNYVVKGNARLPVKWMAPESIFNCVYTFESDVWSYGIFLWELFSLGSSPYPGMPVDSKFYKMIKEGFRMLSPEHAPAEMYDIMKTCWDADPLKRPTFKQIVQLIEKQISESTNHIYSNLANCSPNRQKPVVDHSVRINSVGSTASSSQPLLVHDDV
Serine/threonine-protein kinase MRCK alpha (Homo sapiens), sequence (Q5VT25 whole entry, canonical isoform): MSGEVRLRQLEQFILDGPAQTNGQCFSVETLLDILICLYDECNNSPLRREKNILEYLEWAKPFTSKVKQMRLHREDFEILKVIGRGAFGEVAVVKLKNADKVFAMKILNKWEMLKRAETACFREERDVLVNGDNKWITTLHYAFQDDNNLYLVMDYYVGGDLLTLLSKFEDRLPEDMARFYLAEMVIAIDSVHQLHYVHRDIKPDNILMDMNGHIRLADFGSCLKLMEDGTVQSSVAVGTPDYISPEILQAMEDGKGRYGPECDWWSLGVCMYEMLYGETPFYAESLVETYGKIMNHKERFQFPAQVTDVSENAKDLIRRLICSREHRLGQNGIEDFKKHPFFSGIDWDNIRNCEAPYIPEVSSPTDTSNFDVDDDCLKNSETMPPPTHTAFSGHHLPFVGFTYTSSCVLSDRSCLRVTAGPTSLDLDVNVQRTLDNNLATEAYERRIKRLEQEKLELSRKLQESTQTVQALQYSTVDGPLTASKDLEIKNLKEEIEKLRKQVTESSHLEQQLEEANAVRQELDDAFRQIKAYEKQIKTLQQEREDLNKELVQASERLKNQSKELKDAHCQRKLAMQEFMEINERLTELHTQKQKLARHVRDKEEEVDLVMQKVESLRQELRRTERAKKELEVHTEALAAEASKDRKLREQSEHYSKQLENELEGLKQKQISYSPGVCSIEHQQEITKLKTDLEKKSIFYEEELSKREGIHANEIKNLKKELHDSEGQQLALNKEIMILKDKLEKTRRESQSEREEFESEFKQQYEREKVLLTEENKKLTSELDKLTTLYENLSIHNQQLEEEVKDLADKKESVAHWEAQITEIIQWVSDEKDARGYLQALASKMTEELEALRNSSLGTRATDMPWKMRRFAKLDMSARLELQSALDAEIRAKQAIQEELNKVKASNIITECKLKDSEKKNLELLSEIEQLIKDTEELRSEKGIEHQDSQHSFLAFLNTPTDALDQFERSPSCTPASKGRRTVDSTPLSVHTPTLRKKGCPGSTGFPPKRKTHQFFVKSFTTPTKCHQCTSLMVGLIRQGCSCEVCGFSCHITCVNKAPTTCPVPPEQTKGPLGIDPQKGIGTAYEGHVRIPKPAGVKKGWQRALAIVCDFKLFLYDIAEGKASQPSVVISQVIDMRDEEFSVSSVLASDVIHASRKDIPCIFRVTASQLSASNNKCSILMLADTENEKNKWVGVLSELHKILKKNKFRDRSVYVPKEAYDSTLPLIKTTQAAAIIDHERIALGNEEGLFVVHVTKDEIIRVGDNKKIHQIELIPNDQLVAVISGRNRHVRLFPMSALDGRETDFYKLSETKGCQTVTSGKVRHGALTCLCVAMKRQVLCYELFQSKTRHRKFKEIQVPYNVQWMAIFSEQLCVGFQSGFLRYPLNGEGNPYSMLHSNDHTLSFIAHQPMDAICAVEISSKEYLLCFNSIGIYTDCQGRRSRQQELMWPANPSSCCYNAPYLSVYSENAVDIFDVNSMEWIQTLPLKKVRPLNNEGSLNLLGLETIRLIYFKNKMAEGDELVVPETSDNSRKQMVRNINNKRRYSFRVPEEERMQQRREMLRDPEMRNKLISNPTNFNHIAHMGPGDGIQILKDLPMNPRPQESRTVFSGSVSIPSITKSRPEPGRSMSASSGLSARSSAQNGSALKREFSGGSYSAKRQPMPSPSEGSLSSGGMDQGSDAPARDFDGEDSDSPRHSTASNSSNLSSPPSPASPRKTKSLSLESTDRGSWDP
Ephrin type-A receptor 2 (Homo sapiens), sequence (P29317 whole entry): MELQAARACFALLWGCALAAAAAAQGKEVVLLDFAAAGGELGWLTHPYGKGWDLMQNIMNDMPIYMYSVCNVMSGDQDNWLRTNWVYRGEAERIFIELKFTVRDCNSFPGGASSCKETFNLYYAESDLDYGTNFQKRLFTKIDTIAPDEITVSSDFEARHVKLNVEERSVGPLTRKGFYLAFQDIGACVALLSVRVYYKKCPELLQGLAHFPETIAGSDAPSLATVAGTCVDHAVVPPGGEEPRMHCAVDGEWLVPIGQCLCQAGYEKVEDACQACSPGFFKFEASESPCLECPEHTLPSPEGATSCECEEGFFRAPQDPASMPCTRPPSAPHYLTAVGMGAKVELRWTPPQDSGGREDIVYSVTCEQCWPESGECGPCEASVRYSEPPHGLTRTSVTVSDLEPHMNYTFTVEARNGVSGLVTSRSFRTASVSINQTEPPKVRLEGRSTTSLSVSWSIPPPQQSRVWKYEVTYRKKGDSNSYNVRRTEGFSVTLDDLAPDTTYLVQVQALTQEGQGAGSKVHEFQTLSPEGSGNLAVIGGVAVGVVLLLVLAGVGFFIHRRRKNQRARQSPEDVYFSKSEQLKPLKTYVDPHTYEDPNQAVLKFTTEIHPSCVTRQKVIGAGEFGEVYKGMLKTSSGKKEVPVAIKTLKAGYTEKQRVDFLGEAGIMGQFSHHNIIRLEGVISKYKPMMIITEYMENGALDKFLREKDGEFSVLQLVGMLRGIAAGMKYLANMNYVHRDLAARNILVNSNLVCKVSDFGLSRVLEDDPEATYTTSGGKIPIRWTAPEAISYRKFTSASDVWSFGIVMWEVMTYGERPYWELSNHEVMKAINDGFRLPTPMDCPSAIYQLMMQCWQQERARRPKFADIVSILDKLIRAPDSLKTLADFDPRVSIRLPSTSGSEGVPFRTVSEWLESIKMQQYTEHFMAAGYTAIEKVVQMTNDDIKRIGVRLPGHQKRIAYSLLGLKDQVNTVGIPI

In the case of `Cc1nc(C2CCN(C(=O)c3ccc(OC(F)(F)F)cc3N)CC2)c2ncc(N3CCN(C)CC3)cc2n1` [BAY-693], the IC50 in the test on SN12C is 29.3 µM (not active). In addition, the residual activity in [1] is 100%; in [2] it was 100%; in [3], 100%; in [4], 79%; in [5], 94%; in test [6], 100%. The residual activity in test [7] was 100%; in [8], 100%; in test [9] it was 100%; in test [10] it was 98%; in test [11], 95%; in [12], 100%. For the same compound, the residual activity in test [13] was 100%; in [14], 94%; in [15] it was 99%; in test [16], 94%; in [17], 100%; in test [18], 91%. Besides, the residual activity in test [19] is 87%; in test [20], 82%; in test [21], 100%; in test [22], 100%.
Take `CN1CCN(c2cnc3c(C4CCN(C(=O)c5ccc(OC(F)(F)F)cc5N)CC4)ncnc3c2)CC1` [BAY-885]: the IC50 in the test on SN12C is given as > 30 µM (not active). In addition, the residual activity in test [1] was 100%; in test [2] it was 100%; in test [3] it was 100%; in test [4], 100%; in [5], 92%; in test [6], 100%. The residual activity in test [7] was 100%; in test [8], 100%; in [9], 100%; in [10], 94%; in test [11], 100%; in [12], 100%. The residual activity in test [13], in test [14], in test [15], in test [16], in test [17] and in test [18] was 100% throughout. Moreover, the residual activity is 97% in test [19], 80% in test [20], 100% in [21] and 100% in test [22].
